Measurements taken from patent US12459951B2, “Compounds that interact with RAS superfamily proteins for treatment of cancers, inflammatory diseases, rasopathies, and fibrotic disease” (SHY Therapeutics, LLC, priority 2022, dated 2025).
pIC50: −log10 of the molar value.

How the values were obtained:
[1] = system: Smad2/Smad3 phosphorylation; experiment: Phospho-Smad2/3 Inhibition Assay (western blot), Panc-1; type: cell-based, human; details: at 10 μM, Panc-1 pancreatic cancer cell line; starred symbols = activation
In short: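 Western blotting of lysates (15-50 μg protein) read phosphorylation of Smad2 Ser465/467 and Smad3 Ser423/425. Before lysis, Panc-1 cells got 1 h of 10 ng/ml TGF-b1 following 3 h compound exposure at 37° C (10 μM final, or serial dilutions for IC50, 0.3% DMSO) after overnight 0.5% FBS starvation.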

TNF-alpha = TNF-alpha Quantification Assay (ELISA), LPS-stimulated RAW 264.7; type: cell-based; details: Mus musculus, RAW264.7; at 10 μM; read-out: TNFα: % inh.
[2] = system: MiaPaca-2 (expressing KRAS G12C mutant); experiment: Proliferation Assay (Cell Viability Assay); type: cell-based; details: Homo sapiens, MIA PaCa-2; read-out: Proliferation in MiaPaca-2: IC50
In short: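 After 2–4 days' exposure at 37 °C, 5% CO2 to a single 10 μM final concentration or a dilution series (IC50), percent proliferation inhibition was derived from CellTiter 96 Aqueous One viability readings. The medium contained 0.3% DMSO and 10% FBS. KRAS G12C MiaPaca-2 cells were plated at 2000–5000/well the day before.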

## CO[C@@H]1C[C@H]1Nc1nc(-c2nccn2C)nn2cc(-c3ccncc3)c(-c3ccccc3)c12 (racemic) [Compound 197, rac N-((1R,2R)-2-methoxycyclopropyl)-2-(1-methyl-1H-imidazol-2-yl)-5-phenyl-6-(pyridin-4-yl)pyrrolo[2,1-f][1,2,4]triazin-4-amine]
[1]
  % inh of Smad2/3 phosphorylation in Panc-1: C (C = 46-75% inhibition)
TNF-alpha
  inhibition at 10 µM: 25 to 49%
[2]
  pIC50: < 6.00

## CO[C@H]1C[C@H](S(=O)(=O)Nc2nc(-c3nccn3C)nn3cc(-c4ccccc4)c(-c4ccccc4)c23)C1 [Compound 214, (1r,3r)-3-Methoxy-N-(2-(1-methyl-1H-imidazol-2-yl)-5,6-diphenylpyrrolo[2,1-f][1,2,4]triazin-4-yl)cyclobutane-1-sulfonamide]
[1]
  % inh of Smad2/3 phosphorylation in Panc-1: D (D = 76-100% inhibition)
TNF-alpha
  inhibition at 10 µM: 0%
[2]
  pIC50: < 6.00

## CO[C@H]1C[C@H](Nc2nc(-c3nccn3C)nn3cc(-c4cccnc4)c(-c4ccccc4)c23)C1 [Compound 192, N-((1r,3r)-3-Methoxycyclobutyl)-2-(1-methyl-1H-imidazol-2-yl)-5-phenyl-6-(pyridin-3-yl)pyrrolo[2,1-f][1,2,4]triazin-4-amine]
[1]
  % inh of Smad2/3 phosphorylation in Panc-1: A* (A* = 1-25% activation)
TNF-alpha
  inhibition at 10 µM: 25 to 49%
[2]
  pIC50: < 6.00

## CO[C@H]1C[C@H](Nc2nc(-c3nccn3C)nn3cc(-c4ccccc4)c(-c4ccccc4)c23)C1 [Compound 203, N-((1r,3r)-3-Methoxycyclobutyl)-2-(1-methyl-1H-imidazol-2-yl)-5,6-diphenylpyrrolo[2,1-f][1,2,4]triazin-4-amine]
[1]
  % inh of Smad2/3 phosphorylation in Panc-1: D (D = 76-100% inhibition)
TNF-alpha
  inhibition at 10 µM: 75 to 100%
[2]
  pIC50: 6.00 to 6.29

## COc1ccnc(Nc2nc(-c3nccn3C)nn3cc(-c4ccn(CCN)n4)c(C)c23)c1 [Compound 187, 6-(1-(2-Aminoethyl)-1H-pyrazol-3-yl)-N-(4-methoxypyridin-2-yl)-5-methyl-2-(1-methyl-1H-imidazol-2-yl)pyrrolo[2,1-f][1,2,4]triazin-4-amine]
[1]
  % inh of Smad2/3 phosphorylation in Panc-1: A* (A* = 1-25% activation)
TNF-alpha
  inhibition at 10 µM: 1 to 24%
[2]
  pIC50: < 6.00

## Cc1c(-c2ccn(C)n2)cn2nc(-c3nccn3C)nc(Nc3ccc(-n4ccnc4)cn3)c12 [Compound 242, N-(5-(1H-Imidazol-1-yl)pyridin-2-yl)-5-methyl-2-(1-methyl-1H-imidazol-2-yl)-6-(1-methyl-1H-pyrazol-3-yl)pyrrolo[2,1-f][1,2,4]triazin-4-amine]
[1]
  % inh of Smad2/3 phosphorylation in Panc-1: A (A = 1-25% inhibition)
TNF-alpha
  inhibition at 10 µM: 0%
[2]
  pIC50: < 6.00

## COc1cccc(-c2cn3nc(-c4nccn4C)nc(N[C@H]4C[C@H](OC)C4)c3c2-c2ccccc2)c1C [Compound 209, 6-(3-methoxy-2-methylphenyl)-N-((1r,3r)-3-methoxycyclobutyl)-2-(1-methyl-1H-imidazol-2-yl)-5-phenylpyrrolo[2,1-f][1,2,4]triazin-4-amine]
[1]
  % inh of Smad2/3 phosphorylation in Panc-1: D (D = 76-100% inhibition)
TNF-alpha
  inhibition at 10 µM: 75 to 100%
[2]
  pIC50: 6.30 to 6.82

## CO[C@H]1C[C@@H](Nc2nc(-c3nccn3C)nn3cc(-c4ccncc4)c(-c4ccccc4)c23)C1 [Compound 198, N-((1s,3s)-3-Methoxycyclobutyl)-2-(1-methyl-1H-imidazol-2-yl)-5-phenyl-6-(pyridin-4-yl)pyrrolo[2,1-f][1,2,4]triazin-4-amine]
[1]
  % inh of Smad2/3 phosphorylation in Panc-1: A (A = 1-25% inhibition)
TNF-alpha
  inhibition at 10 µM: 25 to 49%
[2]
  pIC50: < 6.00

## COCCNC(=O)c1c(-c2ccn(C)n2)cn2nc(-c3nccn3C)nc(N[C@H]3CC[C@H](OC)C3)c12 (racemic) [Compound 183, rac 4-(((1S,3S)-3-Methoxycyclo-pentyl)amino)-N-(2-methoxyethyl)-2-(1-methyl-1H-imidazol-2-yl)-6-(1-methyl-1H-pyrazol-3-yl)pyrrolo[2,1-f][1,2,4]triazine-5-carboxamide]
[1]
  % inh of Smad2/3 phosphorylation in Panc-1: D* (D* = 76-100% activation)
TNF-alpha
  inhibition at 10 µM: 25 to 49%
[2]
  pIC50: < 6.00

## CO[C@H]1C[C@H](Nc2nc(-c3nccn3C)nn3cc(-c4cccnc4)c(-c4cccnc4)c23)C1 [Compound 171, N-((1r,3r)-3-Methoxycyclobutyl)-2-(1-methyl-1H-imidazol-2-yl)-5,6-di(pyridin-3-yl)pyrrolo[2,1-f][1,2,4]triazin-4-amine]
[1]
  % inh of Smad2/3 phosphorylation in Panc-1: B (B = 26-45% inhibition)
TNF-alpha
  inhibition at 10 µM: 0%
[2]
  pIC50: < 6.00

## COc1ccnc(Nc2nc(-c3nccn3C)nn3cc(-c4ccn(C)n4)c(C(=O)NCCN(C)C)c23)c1 [Compound 177, N-(2-(Dimethylamino)ethyl)-4-((4-methoxypyridin-2-yl)amino)-2-(1-methyl-1H-imidazol-2-yl)-6-(1-methyl-1H-pyrazol-3-yl)pyrrolo[2,1-f][1,2,4]triazine-5-carboxamide]
[1]
  % inh of Smad2/3 phosphorylation in Panc-1: A (A = 1-25% inhibition)
TNF-alpha
  inhibition at 10 µM: 0%
[2]
  pIC50: < 6.00

## CO[C@H]1C[C@H](Nc2nc(-c3nccn3C)nn3cc(-c4cccc(CN)c4)c(-c4ccccc4)c23)C1 [Compound 204, 6-(3-(aminomethyl)phenyl)-N-((1r,3r)-3-methoxycyclobutyl)-2-(1-methyl-1H-imidazol-2-yl)-5-phenylpyrrolo[2,1-f][1,2,4]triazin-4-amine]
[1]
  % inh of Smad2/3 phosphorylation in Panc-1: A (A = 1-25% inhibition)
TNF-alpha
  inhibition at 10 µM: 25 to 49%
[2]
  pIC50: < 6.00

## CO[C@H]1C[C@H](Nc2nc(-c3nccn3C)nn3cc(-c4ccc(OCCN)cc4)c(-c4ccccc4)c23)C1.Cl [Compound 208, 6-(4-(2-Aminoethoxy)phenyl)-N-((1r,3r)-3-methoxycyclobutyl)-2-(1-methyl-1H-imidazol-2-yl)-5-phenylpyrrolo[2,1-f][1,2,4]triazin-4-amine hydrochloride salt]
[1]
  % inh of Smad2/3 phosphorylation in Panc-1: D (D = 76-100% inhibition)
TNF-alpha
  inhibition at 10 µM: 25 to 49%
[2]
  pIC50: < 6.00

## COCCCNC(=O)c1c(-c2ccn(C)n2)cn2nc(-c3nccn3C)nc(N[C@H]3CC[C@H](OC)C3)c12 (racemic) [Compound 184, rac 4-(((1S,3S)-3-methoxycyclo-pentyl)amino)-N-(3-methoxypropyl)-2-(1-methyl-1H-imidazol-2-yl)-6-(1-methyl-1H-pyrazol-3-yl)pyrrolo[2,1-f][1,2,4]triazine-5-carboxamide]
[1]
  % inh of Smad2/3 phosphorylation in Panc-1: B* (B* = 26-45% activation)
TNF-alpha
  inhibition at 10 µM: 25 to 49%
[2]
  pIC50: < 6.00

## COc1ccnc(Nc2nc(-c3nccn3CCNC(=O)CCCC[C@H]3SC[C@H]4NC(=O)N[C@H]43)nn3cc(-c4ccn(C)n4)c(C)c23)c1 [Compound 216, N-(2-(2-(4-((4-methoxypyridin-2-yl)amino)-5-methyl-6-(1-methyl-1H-pyrazol-3-yl)pyrrolo[2,1-f][1,2,4]triazin-2-yl)-1H-imidazol-1-yl)ethyl)-5-((3aR,4R,6aS)-2-oxohexahydro-1H-thieno[3,4-d]imidazol-4-yl)pentanamide]
[1]
  % inh of Smad2/3 phosphorylation in Panc-1: C* (C* = 46-75% activation)
TNF-alpha
  inhibition at 10 µM: 25 to 49%
[2]
  pIC50: < 6.00

## Cc1c(-c2ccn(C)n2)cn2nc(-c3nccn3C)nc(Nc3ccc(C(C)(C)O)cn3)c12 [Compound 241, 2-(6-((5-Methyl-2-(1-methyl-1H-imidazol-2-yl)-6-(1-methyl-1H-pyrazol-3-yl)pyrrolo[2,1-f][1,2,4]triazin-4-yl)amino)pyridin-3-yl)propan-2-ol]
[1]
  % inh of Smad2/3 phosphorylation in Panc-1: C* (C* = 46-75% activation)
TNF-alpha
  inhibition at 10 µM: 1 to 24%
[2]
  pIC50: < 6.00

## CO[C@H]1CC[C@H](Nc2nc(-c3nccn3C)nn3cc(-c4cccnc4)c(-c4ccccc4)c23)C1 (racemic) [Compound 194, rac N-((1S,3S)-3-Methoxycyclopentyl)-2-(1-methyl-1H-imidazol-2-yl)-5-phenyl-6-(pyridin-3-yl)pyrrolo[2,1-f][1,2,4]triazin-4-amine]
[1]
  % inh of Smad2/3 phosphorylation in Panc-1: A (A = 1-25% inhibition)
TNF-alpha
  inhibition at 10 µM: 50 to 74%
[2]
  pIC50: < 6.00

## Cc1c(-c2ccn(C)n2)cn2nc(-c3nccn3C)nc(Nc3ccc(OC(F)F)cn3)c12 [Compound 231, N-(5-(Difluorometh-oxy)pyridin-2-yl)-5-methyl-2-(1-methyl-1H-imidazol-2-yl)-6-(1-methyl-1H-pyrazol-3-yl)pyrrolo[2,1-f][1,2,4]triazin-4-amine]
[1]
  % inh of Smad2/3 phosphorylation in Panc-1: D (D = 76-100% inhibition)
TNF-alpha
  inhibition at 10 µM: 0%
[2]
  pIC50: > 6.82

## CO[C@H]1CC[C@H](Nc2nc(-c3nccn3C)nn3cc(-c4ccn(C)n4)c(C(=O)NC4CC4)c23)C1 (racemic) [Compound 182, rac N-Cyclopropyl-4-(((1S,3S)-3-methoxycyclo-pentyl)amino)-2-(1-methyl-1H-imidazol-2-yl)-6-(1-methyl-1H-pyrazol-3-yl)pyrrolo[2,1-f][1,2,4]triazine-5-carboxamide]
[1]
  % inh of Smad2/3 phosphorylation in Panc-1: A* (A* = 1-25% activation)
TNF-alpha
  inhibition at 10 µM: 1 to 24%
[2]
  pIC50: < 6.00

## Cc1ccc(Nc2nc(-c3nccn3C)nn3cc(-c4ccn(C)n4)c(C)c23)nc1 [Compound 226, 5-Methyl-2-(1-methyl-1H-imidazol-2-yl)-6-(1-methyl-1H-pyrazol-3-yl)-N-(5-methylpyridin-2-yl)pyrrolo[2,1-f][1,2,4]triazin-4-amine]
[1]
  % inh of Smad2/3 phosphorylation in Panc-1: D (D = 76-100% inhibition)
TNF-alpha
  inhibition at 10 µM: 25 to 49%
[2]
  pIC50: > 6.82
